From patent US10888549B2, “Pharmaceutical agents targeting cancer stem cells” (THE JOHNS HOPKINS UNIVERSITY, priority 2016, dated 2021) come the findings set out here.

Each structure is given as a SMILES string.

One data set deals with urothelial CSCs. Put plainly: Sphere formation assay (CSC properties). The class given is cell-based, human. Here is the method:
Sphere formation was induced by culturing cells (2×10^4/well) in DMEM/Ham's F12 50/50 Mix (Mediatech) supplemented with B-27 (Life Technologies), 20 ng/mL FGF-basic (Peprotech), 20 ng/mL EGF (Peprotech). Cell culture was performed in ultra-low attachment 6 well plates (Corning, Lowell, USA) for 10 days. The medium was replaced every other day. Sphere formation was evaluated using the inverted phase-contrast microscope, and single sphere with a diameter larger than 100 μm was counted using NIS-Elements Microscope Imaging Software. To redifferentiate spheres, spheres were plated in standard growth medium with 10% FBS in dishes supporting cell attachment, and incubated for 7 days. For self-renewal assay, primary spheres were collected by gentle centrifugation (5 min at 400×g), dissociated with Stempro Accutase Cell Dissociation Reagent (Life Technologies), and mechanically disrupted with a pipette. The cell suspension was sieved through 40 μm cell strainer cap filter to achieve a single-cell suspension, and then equal numbers of alive cells were plated in ultralow attachment plates to generate the second spheres. Again, spheres were counted on day 14 and digested to generate the third Spheres. All the experiments were performed in triplicate and repeated at least three times.

In data set [1] the test system is promoters of miR-126, miR-296, and miR-200c. Put plainly: Bisulfite sequencing of miRNA promoters. The class given is cell-based, human. The conditions noted are these: spheroid cells.
Method: Cell pellets were digested with 1% sodium dodecyl sulfate and 50 μg/mL proteinase K (Roche, Nutley, USA) at 48° C. overnight. Isolation of genomic DNA from cell lines was performed with the phenol-chloroform extraction protocol followed by ethanol precipitation. Bisulfite treatment was conducted using an EpiTect Bisulfite Kit (QIAGEN, Valencia, USA), and was subsequently amplified via PCR using primers as shown in the following table. PCR products were purified using the QIAquick Gel Extraction kit (Qiagen), and sequenced by Genewiz DNA sequencing service (Genewiz, South Plainfield, USA). The data were analyzed using the Sequence Scanner v1.0 software (Life technologies). A methylation frequency of ≥50% of total CpG sites within the amplified region was considered “methylation-positive”.
For another data set, the system named is SOX2. The data set can be described thus: SOX2 expression by western blotting / flow cytometry. The class given is cell-based, human. Here is the method: Whole cell lysates were extracted using RIPA buffer (Thermo Scientific) supplemented with 10 μL/mL Halt™ Protease Inhibitor Cocktail Kit (Life Technologies) and 30 μL/mL Halt™ Phosphatase Inhibitor Cocktail Kit (Life Technologies). The protein concentrations were determined using a Pierce™ BCA Protein Assay Kit (Life Technologies), and the protein were separated on NuPAGE® 4-12% Bis-Tris Gel (Life Technologies) according to the manufacturer's protocol. COX2 (D5H5), NANOG (D73G4), OCT4 (D7O5Z), CD133 (A3G6K), Snail (C15D3), ZEB1 (D80D3), Vimentin (D21H3), CDH2 (D4R1H), CDH1 (24E10), p-EGFR (D7A5), EGFR (D38B1), p-AKT (D9E), AKT (cat #, 9272), p-ERK (D13.14.4E), ERK (137F5), p-YAP1 (D9W2I), p-Src (cat #, 2101), Src (36D10), DNMT1 (D63A6), DNMT3A (D23G1), and DNMT3B (D7O7O) antibodies were obtained from Cell Signaling Technology (Danvers, Mass., USA), except for SOX2 (EPR3131; Abcam, Cambridge, USA), YAP1 (ab52771; Abcam), CD24 (cat #, AF5247-SP; R&D Systems, Minneapolis USA) and β-actin (A2228; Sigma-Aldrich). Secondary horseradish peroxidase (HRP)-conjugated antibodies were obtained from Cell Signaling Technology, and chemiluminescent detection of HRP-labeled antibodies was performed using Amersham ECL Prime Western Blotting Detection Reagent (GE Healthcare, Piscataway, USA). As loading control, β-actin was used.
For extracellular staining, cells (1×10^6/100 μL stain buffer) were incubated with PE-Vio770-conjugated anti-human CD133 (293C3; Miltenyi Biotec, Auburn, USA) or PE-conjugated anti-human CD24 antibody (cat #, 560991; BD Biosciences) for 30 min at 4° C. in dark. PE-Vio770-conjugated Isotype (cat #, 130-098-563; Miltenyi Biotec) and PE-conjugated IgG2a, κ Isotype (cat #, 555574; BD Biosciences) were used as control for CD133 and CD24 staining, respectively. Staining for intracellular SOX2 was carried out using the BD Cytofix/Cytoperm Fixation/Permeabilization Kit (BD Biosciences) according to manufacturer's protocol. The cells were incubated with Alexa Fluor 647-conjugated anti-SOX2 antibody (cat #, 560302; BD Biosciences) for 40 min at 4° C. in dark. Alexa Fluor 647-conjugated anti-IgG2a, κ Isotype (cat #, 558053; BD Biosciences) was used as control. Data were acquired on a BD FACSCalibur flow cytometer (BD Biosciences) using BD CellQuest Pro software (BD Biosciences) and analyzed with FlowJo software v10.1 (Tree Star, Ashland, USA).
In general terms: A western blot detects proteins with antibodies after separation by electrophoresis.

Data set [2] in a line: Body weight of treated mice. Particulars: compared with control. The class given is in vivo. Here is the method: For celecoxib and/or VP treatment, celecoxib (5 mg/kg) was administered via intraperitoneal (i.p.) injection once a day (17), and VP (50 mg/kg) was administered via i.p. every other day (18). EP4 antagonist ONO-AE3-208 (10 mg/kg) was administered via i.p. once a day (19). Control was applied with same volume (100 μL per injection) of 10% dimethyl sulphoxide in […] (Sigma-Aldrich). For GEM and CDDP (GC) treatment (i.p.), CDDP (6 mg/kg) was only applied after the first GEM (60 mg/kg) treatment on day 2, followed by three consecutive treatments of GEM on day 5, 8 and 11 (17). The next cycle was started on day 18, and the treatment was continued until tumor reached 2 cm in diameter. For erlotinib treatment, the mice were treated once a day, 6 days per week, by oral gavage with erlotinib (100 mg/kg) or control (PBS containing 0.5% methyl cellulose (Sigma-Aldrich) and 0.1% TWEEN 80) (20). Tumor size was measured at least every three days. […] To establish xenograft model with acquired resistance to erlotinib, erlotinib sensitive 5637 cells were injected subcutaneously into the both flanks of 4-5 week-old NSG mice, and the tumors were consecutively passaged from NSG mice treated with erlotinib and celecoxib until the development of refractory tumors. […]

[3] abbreviates: agent alone, bladder cancer cells.

With `Cc1ccc(-c2cc(C(F)(F)F)nn2-c2ccc(S(N)(=O)=O)cc2)cc1` [celecoxib, Celecoxib], the sphere formation entry with urothelial CSCs (COX2 inhibitor added to erlotinib, basal-type cells, 72 hours) is given as “impaired”. Also, the “sphere formation / sphere-forming ability” value in the data set with urothelial CSCs (setting [3]) is given as “repressed”. In data set [1], the “promoter methylation of miRNAs (miR-126, miR-296, miR-200c)” value is “demethylated”. The SOX2 expression result in the data set with SOX2 (COX2 inhibitor added to erlotinib, basal-type cells) is listed as “impaired”; with SOX2 (setting [3]), “repressed”. In addition, in data set [2], the “body weight loss of mice” value is on record as “did not observe body weight loss”.
